# Measured values from ChEMBL document CHEMBL1201862, “PubChem BioAssay data set” (2004).
# Calls of active or inactive are those of the source.
# Assays:
# HeLa = assay: HeLa cell cytotoxicity, dose response, cytotoxicity control, 24 h, cherry-picked samples (AID 504726); assay type: functional, cell-based; settings: Homo sapiens;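 further: potency for cytotoxicity as loss of luminescence signal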
# [1] = biological target: T1, Heat shock factor protein 1 (Mus musculus, UniProt P38532); assay: inhibition of MG132-induced HSE-luciferase signal, confirmation, cell-based, NIH3T3, luminescence, dose retest (AID 2382); assay type: functional;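 further: NIH3T3 fibroblasts with HSF1-driven luciferase reporter stressed by proteasome inhibitor MG132; luminescence from HSF1-driven luciferase expression after 8 hours of MG132 stress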
# T1 sequence (P38532 whole entry): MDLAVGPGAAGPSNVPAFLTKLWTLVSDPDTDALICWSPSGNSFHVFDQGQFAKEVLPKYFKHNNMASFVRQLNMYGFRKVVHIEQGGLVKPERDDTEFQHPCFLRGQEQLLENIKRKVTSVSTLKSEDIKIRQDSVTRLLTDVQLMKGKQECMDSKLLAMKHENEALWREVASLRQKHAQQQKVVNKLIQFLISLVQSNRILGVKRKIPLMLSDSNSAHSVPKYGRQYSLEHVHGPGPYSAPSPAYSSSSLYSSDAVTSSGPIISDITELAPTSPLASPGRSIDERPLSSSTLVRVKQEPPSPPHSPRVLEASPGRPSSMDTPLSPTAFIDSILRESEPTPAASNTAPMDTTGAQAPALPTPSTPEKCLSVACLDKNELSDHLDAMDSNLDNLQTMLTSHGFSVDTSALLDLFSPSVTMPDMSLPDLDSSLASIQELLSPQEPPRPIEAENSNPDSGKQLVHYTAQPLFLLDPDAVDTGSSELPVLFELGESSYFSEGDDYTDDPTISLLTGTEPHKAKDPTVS
# Mucolipin-3 = biological target: T2, Mucolipin-3 (Homo sapiens, UniProt Q8TDD5); assay: Dose response cell-based high-throughput screening assay for agonists of the transient receptor potential channel ML3 (TRPML3). [Related pubchem assays: 1526, 1424, 1448 ]; assay type: functional
# T2 sequence (Q8TDD5 whole entry): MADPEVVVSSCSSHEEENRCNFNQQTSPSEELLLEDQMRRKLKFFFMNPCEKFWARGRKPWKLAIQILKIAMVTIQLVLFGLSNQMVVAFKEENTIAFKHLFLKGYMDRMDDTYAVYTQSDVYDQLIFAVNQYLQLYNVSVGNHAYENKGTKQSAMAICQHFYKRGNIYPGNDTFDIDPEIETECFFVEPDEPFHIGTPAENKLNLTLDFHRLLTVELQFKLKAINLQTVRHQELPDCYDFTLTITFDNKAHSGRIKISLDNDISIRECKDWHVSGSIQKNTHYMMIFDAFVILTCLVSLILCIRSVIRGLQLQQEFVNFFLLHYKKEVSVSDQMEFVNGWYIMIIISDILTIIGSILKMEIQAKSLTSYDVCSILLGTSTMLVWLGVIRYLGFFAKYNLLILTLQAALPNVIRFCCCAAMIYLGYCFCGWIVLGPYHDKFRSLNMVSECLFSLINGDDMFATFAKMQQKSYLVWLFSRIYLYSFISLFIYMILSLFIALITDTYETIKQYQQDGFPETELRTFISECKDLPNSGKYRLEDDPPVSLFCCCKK
# Ion channel NompC = Ion channel NompC (Danio rerio, UniProt Q7T1G6); assay: Fluorescence counterscreen assay for TRPML3 agonists: dose response cell-based high-throughput screening assay to identify agonists of the transient receptor potential channel N1 (TRPN1). [Related pubchem assays: 1526, 1424, 1448 ]; assay type: functional
# Leucine aminopeptidase = biological target: T3, Leucine aminopeptidase (Plasmodium falciparum 3D7, UniProt Q8IL11); assay: P. falciparum M17LAP inhibitors, primary screen, biochemical, fluorogenic H-Leu-NHMec substrate, 1536-well (AID 1619); assay type: functional
# T3 sequence (Q8IL11 whole entry): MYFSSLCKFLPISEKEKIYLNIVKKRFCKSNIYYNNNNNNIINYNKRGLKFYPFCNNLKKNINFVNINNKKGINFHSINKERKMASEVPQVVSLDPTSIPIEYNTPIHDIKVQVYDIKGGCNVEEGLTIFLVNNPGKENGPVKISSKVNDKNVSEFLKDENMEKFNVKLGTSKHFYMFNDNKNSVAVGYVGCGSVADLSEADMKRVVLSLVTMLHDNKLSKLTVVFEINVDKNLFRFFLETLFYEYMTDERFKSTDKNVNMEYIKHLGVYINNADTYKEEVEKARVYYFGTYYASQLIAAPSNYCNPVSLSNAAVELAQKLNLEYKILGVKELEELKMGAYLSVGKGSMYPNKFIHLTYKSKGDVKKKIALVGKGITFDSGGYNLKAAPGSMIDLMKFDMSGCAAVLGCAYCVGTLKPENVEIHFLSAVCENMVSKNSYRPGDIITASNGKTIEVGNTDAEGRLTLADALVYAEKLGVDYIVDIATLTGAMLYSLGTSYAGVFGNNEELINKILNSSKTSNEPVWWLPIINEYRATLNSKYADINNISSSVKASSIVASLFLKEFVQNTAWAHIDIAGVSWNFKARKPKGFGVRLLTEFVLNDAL
# [2] = biological target: Peroxisome proliferator-activated receptor gamma/Nuclear receptor coactivator 3 (Homo sapiens, UniProt P37231); assay type: functional;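 further: agonist potency for raising coactivator recruitment to the receptor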
# [3] = biological target: Peroxisome proliferator-activated receptor gamma/Nuclear receptor coactivator 2 (Homo sapiens, UniProt P37231); assay type: functional;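 further: agonist potency for raising coactivator recruitment to the receptor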
# Chain of Peroxisome proliferator-activated receptor gamma/Nuclear receptor coactivator 2 (P37231 whole entry): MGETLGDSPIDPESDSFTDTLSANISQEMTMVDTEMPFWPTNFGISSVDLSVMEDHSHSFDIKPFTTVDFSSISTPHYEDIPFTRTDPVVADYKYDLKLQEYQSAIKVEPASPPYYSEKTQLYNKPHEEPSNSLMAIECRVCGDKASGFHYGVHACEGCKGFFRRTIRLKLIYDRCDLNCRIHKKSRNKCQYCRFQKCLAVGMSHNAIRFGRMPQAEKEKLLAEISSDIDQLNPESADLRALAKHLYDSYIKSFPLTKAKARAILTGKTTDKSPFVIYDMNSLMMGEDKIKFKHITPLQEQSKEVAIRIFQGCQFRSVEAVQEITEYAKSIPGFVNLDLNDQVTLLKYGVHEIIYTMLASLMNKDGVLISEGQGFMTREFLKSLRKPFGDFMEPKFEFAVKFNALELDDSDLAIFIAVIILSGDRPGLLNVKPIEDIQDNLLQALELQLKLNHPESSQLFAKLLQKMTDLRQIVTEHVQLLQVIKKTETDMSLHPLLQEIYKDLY
# Chain of Peroxisome proliferator-activated receptor gamma/Nuclear receptor coactivator 2 (Q15596 whole entry, further chain): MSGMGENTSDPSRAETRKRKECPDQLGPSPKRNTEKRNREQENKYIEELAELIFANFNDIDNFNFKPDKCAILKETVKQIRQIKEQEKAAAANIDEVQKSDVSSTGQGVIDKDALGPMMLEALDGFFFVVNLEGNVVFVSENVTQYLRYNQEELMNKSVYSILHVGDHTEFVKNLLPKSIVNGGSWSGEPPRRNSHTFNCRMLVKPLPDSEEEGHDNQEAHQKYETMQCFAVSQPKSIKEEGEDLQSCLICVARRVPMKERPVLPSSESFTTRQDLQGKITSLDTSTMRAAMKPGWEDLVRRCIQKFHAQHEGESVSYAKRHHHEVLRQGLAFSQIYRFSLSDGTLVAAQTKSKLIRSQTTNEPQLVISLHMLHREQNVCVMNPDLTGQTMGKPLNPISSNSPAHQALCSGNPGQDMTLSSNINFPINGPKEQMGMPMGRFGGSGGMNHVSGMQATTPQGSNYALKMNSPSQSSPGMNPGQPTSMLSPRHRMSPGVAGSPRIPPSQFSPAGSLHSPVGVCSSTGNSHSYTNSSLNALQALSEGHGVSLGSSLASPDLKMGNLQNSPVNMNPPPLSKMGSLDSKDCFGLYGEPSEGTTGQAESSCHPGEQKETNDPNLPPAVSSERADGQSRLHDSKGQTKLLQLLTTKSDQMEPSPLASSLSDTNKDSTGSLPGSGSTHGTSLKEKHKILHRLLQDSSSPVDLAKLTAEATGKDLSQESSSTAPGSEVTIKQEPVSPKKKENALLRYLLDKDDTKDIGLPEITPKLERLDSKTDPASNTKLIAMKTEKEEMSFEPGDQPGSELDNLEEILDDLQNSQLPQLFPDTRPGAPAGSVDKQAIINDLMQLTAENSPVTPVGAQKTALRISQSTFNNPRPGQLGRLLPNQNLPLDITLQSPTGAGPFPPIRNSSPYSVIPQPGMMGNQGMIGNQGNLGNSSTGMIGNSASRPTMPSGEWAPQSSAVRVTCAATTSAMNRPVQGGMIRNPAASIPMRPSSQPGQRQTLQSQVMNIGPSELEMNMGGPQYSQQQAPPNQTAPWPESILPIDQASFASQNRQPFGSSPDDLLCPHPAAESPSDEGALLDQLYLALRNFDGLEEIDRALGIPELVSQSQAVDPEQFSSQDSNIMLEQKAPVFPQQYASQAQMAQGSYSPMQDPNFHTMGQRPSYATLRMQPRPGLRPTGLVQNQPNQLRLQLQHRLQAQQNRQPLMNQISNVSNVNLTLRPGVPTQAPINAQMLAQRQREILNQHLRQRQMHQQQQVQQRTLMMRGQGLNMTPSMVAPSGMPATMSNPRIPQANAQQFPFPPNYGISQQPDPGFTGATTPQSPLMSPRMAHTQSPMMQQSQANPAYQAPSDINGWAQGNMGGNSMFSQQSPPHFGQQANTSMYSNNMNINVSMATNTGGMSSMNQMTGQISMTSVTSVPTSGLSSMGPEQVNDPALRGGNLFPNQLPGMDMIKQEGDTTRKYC
# [4] = biological target: Peroxisome proliferator-activated receptor gamma/Nuclear receptor coactivator 1 (Homo sapiens, UniProt P37231); assay type: functional;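 further: agonist potency as compounds enhance coactivator SRC-1 recruitment to PPARgamma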
# Chain of Peroxisome proliferator-activated receptor gamma/Nuclear receptor coactivator 1 (P37231 whole entry): as the sequence (P37231 whole entry) above
# Chain of Peroxisome proliferator-activated receptor gamma/Nuclear receptor coactivator 1 (Q15788 whole entry, further chain): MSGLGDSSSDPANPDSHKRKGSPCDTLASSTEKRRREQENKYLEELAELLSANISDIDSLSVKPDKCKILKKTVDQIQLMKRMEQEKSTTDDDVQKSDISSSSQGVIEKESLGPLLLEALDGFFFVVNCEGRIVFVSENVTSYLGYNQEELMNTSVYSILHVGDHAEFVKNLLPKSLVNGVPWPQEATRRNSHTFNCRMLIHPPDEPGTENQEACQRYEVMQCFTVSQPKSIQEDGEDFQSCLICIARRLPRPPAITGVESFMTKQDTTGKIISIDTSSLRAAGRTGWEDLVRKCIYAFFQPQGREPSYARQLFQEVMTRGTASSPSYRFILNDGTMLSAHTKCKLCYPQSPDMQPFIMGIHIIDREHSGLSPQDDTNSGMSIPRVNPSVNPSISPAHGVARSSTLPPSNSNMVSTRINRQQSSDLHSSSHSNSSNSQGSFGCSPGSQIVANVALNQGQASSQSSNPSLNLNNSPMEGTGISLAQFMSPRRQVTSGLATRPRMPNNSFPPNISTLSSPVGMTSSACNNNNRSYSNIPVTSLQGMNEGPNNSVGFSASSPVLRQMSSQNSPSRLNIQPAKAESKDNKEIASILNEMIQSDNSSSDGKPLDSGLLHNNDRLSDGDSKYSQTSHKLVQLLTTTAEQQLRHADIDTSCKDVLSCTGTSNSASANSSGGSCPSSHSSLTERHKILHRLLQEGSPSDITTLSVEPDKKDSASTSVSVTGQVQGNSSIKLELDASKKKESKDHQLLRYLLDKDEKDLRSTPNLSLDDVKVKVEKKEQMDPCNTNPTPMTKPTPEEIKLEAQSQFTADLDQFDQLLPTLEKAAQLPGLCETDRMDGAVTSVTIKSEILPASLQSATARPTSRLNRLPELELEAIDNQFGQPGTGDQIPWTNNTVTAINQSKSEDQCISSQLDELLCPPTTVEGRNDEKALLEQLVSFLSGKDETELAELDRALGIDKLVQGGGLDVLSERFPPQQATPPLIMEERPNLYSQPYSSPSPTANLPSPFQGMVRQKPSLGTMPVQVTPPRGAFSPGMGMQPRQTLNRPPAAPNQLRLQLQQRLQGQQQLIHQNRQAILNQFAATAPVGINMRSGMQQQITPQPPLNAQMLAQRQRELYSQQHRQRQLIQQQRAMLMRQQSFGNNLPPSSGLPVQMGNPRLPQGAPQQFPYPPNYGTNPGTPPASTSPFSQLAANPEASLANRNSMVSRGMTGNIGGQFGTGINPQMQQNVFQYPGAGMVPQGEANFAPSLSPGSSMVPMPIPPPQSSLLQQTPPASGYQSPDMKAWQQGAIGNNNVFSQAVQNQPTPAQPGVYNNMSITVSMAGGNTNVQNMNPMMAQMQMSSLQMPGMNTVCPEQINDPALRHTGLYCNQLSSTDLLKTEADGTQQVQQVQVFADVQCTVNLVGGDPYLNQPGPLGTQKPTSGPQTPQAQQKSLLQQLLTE
# [5] = biological target: DNA dC->dU-editing enzyme APOBEC-3A (Homo sapiens, UniProt P31941); assay: APOBEC3A DNA deaminase inhibitors, dose response, biochemical (AID 504722); assay type: functional
# Chain of DNA dC->dU-editing enzyme APOBEC-3A (P31941 whole entry): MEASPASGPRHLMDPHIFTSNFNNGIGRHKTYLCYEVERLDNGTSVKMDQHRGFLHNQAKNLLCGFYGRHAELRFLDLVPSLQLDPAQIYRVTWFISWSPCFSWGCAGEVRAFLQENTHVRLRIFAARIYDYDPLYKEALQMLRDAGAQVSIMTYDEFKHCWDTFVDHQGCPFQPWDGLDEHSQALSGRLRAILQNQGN
# [6] = biological target: DNA dC->dU-editing enzyme APOBEC-3G (Homo sapiens, UniProt Q9HC16); assay: Dose Response confirmation of small molecule APOBEC3G DNA Deaminase Inhibitors via a fluorescence-based single-stranded DNA deaminase assay. [Related pubchem assays (depositor defined):AID493012, AID493028]; assay type: functional
# Chain of DNA dC->dU-editing enzyme APOBEC-3G (Q9HC16 whole entry): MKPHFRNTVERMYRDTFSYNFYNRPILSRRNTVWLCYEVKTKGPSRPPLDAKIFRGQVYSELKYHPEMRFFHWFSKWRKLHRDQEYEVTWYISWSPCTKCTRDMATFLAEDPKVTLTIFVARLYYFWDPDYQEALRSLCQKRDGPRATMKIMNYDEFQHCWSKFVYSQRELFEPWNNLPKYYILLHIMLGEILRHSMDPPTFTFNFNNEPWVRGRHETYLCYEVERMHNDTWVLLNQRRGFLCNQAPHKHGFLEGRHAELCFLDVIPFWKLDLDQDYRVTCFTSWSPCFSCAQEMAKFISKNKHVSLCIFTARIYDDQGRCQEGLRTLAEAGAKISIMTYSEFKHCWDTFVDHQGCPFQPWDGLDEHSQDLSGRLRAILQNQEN
# Large T antigen = Large T antigen (Simian virus 40, UniProt P03070); assay type: functional, Betapolyomavirus macacae;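 further: Confirmatory-stage PubChem screen for compounds that inhibit SV40 T antigen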
# [7] = biological target: G-protein coupled receptor 55 (Homo sapiens, UniProt Q9Y2T6); assay: GPR55 antagonists blocking LPI-driven arrestin recruitment, primary screen, imaging, U2OS, beta-arrestin-GFP, LPI agonist (AID 2013); assay type: functional;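 further: antagonist potency measured as reduced agonist-driven arrestin aggregation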
# Chain of G-protein coupled receptor 55 (Q9Y2T6 whole entry, the tested form may be a part): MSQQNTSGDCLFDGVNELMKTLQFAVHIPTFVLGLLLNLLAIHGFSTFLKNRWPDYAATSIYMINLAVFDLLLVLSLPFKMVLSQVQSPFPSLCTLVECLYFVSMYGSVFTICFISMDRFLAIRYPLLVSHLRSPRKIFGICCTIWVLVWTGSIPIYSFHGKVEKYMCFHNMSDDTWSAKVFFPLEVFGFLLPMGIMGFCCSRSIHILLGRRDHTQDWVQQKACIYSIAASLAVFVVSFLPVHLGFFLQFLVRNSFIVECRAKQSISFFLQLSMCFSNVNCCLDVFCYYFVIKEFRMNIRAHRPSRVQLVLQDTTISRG
# [8] = biological target: T4, RNA-binding protein pos-1 (Caenorhabditis elegans, UniProt G5EF15); assay: inhibitors of POS-1/mex-3 RNA binding, dose response, biochemical, fluorescence polarization (AID 1964);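 further: purified POS-1 fused to maltose binding protein made in E. coli; potency of compounds blocking POS-1 binding to fluorescent RNA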
# T4 sequence (G5EF15 whole entry): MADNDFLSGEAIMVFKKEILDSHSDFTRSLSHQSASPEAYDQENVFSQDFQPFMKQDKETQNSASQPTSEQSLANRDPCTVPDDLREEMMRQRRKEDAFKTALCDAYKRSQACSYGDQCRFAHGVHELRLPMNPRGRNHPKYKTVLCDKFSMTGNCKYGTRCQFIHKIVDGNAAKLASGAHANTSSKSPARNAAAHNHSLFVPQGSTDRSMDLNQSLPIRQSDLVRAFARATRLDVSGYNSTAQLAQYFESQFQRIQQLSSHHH
# [9] = biological target: T5, Zinc finger protein mex-5 (Caenorhabditis elegans, UniProt Q9XUB2); assay: MEX-5/TCR-2 RNA interaction inhibitors, dose response, biochemical, C. elegans, fluorescence polarization (AID 1960)
# T5 sequence (Q9XUB2 whole entry): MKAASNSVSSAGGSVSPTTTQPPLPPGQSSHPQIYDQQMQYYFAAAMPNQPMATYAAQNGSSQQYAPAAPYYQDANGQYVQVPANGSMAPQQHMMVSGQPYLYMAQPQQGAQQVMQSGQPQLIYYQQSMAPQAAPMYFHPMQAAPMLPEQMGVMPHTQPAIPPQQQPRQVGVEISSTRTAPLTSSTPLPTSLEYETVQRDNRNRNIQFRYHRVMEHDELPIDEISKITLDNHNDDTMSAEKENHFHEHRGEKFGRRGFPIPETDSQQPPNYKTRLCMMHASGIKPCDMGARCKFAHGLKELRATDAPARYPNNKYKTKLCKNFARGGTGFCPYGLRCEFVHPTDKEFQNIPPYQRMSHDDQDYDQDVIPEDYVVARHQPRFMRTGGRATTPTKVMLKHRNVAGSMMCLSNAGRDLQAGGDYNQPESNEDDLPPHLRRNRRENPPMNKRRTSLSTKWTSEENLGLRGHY
# HEK293 [10] = assay: cells; assay type: functional, cell-based; settings: Homo sapiens
# HEK293 [11] = assay: cells; assay type: functional, cell-based; settings: Homo sapiens; remark: listed apart in the source
# HEK293 [12] = assay: NOD1 signaling inhibitors, primary screen, cell-based, luminescence, uHTS (AID 1578); assay type: functional; settings: Homo sapiens
# HEK293 [13] = assay: NOD2 signaling inhibitors in MDP-stimulated cells, cell-based, uHTS, luminescence (AID 2001); assay type: functional; settings: Homo sapiens
# [14] = biological target: Nucleotide-binding oligomerization domain-containing protein 2 (Homo sapiens, UniProt Q9HC29); assay: NOD2 signaling inhibitors, cell-based, luminescence, uHTS, HEK293 (AID 1566); assay type: functional
# HEK293 [15] = assay: cells; assay type: functional, cell-based; settings: Homo sapiens; remark: listed apart in the source
smiles,measurement,setting,value
CC1CC(C)CN(C(=O)c2ccc3ncsc3c2)C1 (stereo not drawn),AC50,HeLa,95.4 µM (active)
Cc1ccc(S(=O)(=O)N2CCC(C)CC2)cc1[N+](=O)[O-],EC50,[1],> 195 µM (not active)
same,EC50,Mucolipin-3,3.51 µM (active)
same,EC50,Ion channel NompC,> 29.9 µM (not active)
CC(Sc1nc2ccccc2s1)C(=O)Nc1nnc(C(C)C)s1 (stereo not drawn),EC50,[1],> 195 µM (not active)
same,IC50,Leucine aminopeptidase,2.84 µM (active)
same,AC50,HeLa,> 350 µM (inactive)
CC(C)[C@H](NC(=O)OC(C)(C)C)c1nnc(SCc2cccc(F)c2)o1,EC50,[2],16.9 µM (not active)
same,EC50,[3],24 µM (not active)
same,EC50,[4],8.46 µM (active)
COc1cccc2cc(-c3n[nH]c(=S)n3C)oc12,IC50,[5],> 100 µM (inactive)
same,IC50,[6],2.18 µM (active)
COc1cc(/C=N/n2c(S)nnc2-c2[nH]nc3c2CCC3)ccc1O,IC50,Large T antigen,7.5 µM (active)
same,IC50,[5],> 100 µM (inactive)
same,IC50,[6],1.56 µM (active)
Cn1ncc([N+](=O)[O-])c1C(=O)N/N=C/c1ccc(F)cc1,EC50,[2],> 79.4 µM (not active)
same,EC50,[3],> 79.4 µM (not active)
same,EC50,[4],> 79.4 µM (not active)
Cc1ccc(/C=C2/C(=O)NC(=O)N(CCc3ccc(F)cc3)C2=O)o1,IC50,[7],4.5 µM (active)
same,EC50,[8],> 300 µM (not active)
same,EC50,[9],290 µM (active)
COc1ccc(C(=O)Nc2ccc(S(=O)(=O)N3CCCCC3C)cc2)c(OC)c1OC (stereo not drawn),EC50,Mucolipin-3,1.78 µM (active)
same,EC50,Ion channel NompC,> 29.9 µM (not active)
CCOC(=O)C1CCN(CCC(=O)Nc2ccc(C)c(C)c2)CC1,EC50,[2],> 79.4 µM (not active)
same,EC50,[3],> 79.4 µM (not active)
same,EC50,[4],> 79.4 µM (not active)
CCOC(=O)c1c(C)n(C)c2ccc(OCCN(C)C)cc12,AC50,HeLa,> 350 µM (inactive)
Cc1cc(C(=O)COc2cccnc2[N+](=O)[O-])c(C)n1Cc1cccs1,IC50,HEK293 [10],> 20 µM (inactive)
same,IC50,HEK293 [11],> 20 µM (inactive)
same,EC50,HEK293 [12],> 20 µM (inactive)
same,IC50,HEK293 [13],> 20 µM (inactive)
same,EC50,[14],8.89 µM (active)
same,IC50,HEK293 [15],> 20 µM (inactive)
